Assay results reported in patent publication US20200179392A1, “Idelalisib for Treating Proliferative Vitreoretinopathy and Abnormal Intraocular Neovascularization” (priority 2016, published 2020).

Legend:
[1] = tested on: phosphorylation of Akt at serine 473; assay: Western blot of Akt phosphorylation (S473) in RPEM cells stimulated with vitreous or PDGF; type: cell-based, human
Protocol: (§1) 1B. After growth factor-deprivation, the RPEM cells were pretreated with idelalisib at indicated concentrations, or its vehicle for 30 minutes, and then treated with normal rabbit vitreous diluted (1:2) in DMEM (RV), V: vehicle (0.1% dimethyl sulfoxide) or PDGF-B (10 ng/ml). After the treatment for 30 minutes at 37° C., their lysates were subjected to a western blot analysis using the indicated antibodies. This is representative of three independent experiments. Cells grown to 90% confluence in wells of 24-well plates were serum starved for 24 hours, and then treated with appropriated agents. After two washes with ice-cold phosphate buffered saline (PBS), the cells were lysed in 1× sample buffer diluted with protein extraction buffer (10 mM Tris-HCl, pH 7.4; 5 mM […] (EDTA), 50 mM NaCl, 50 mM NaF, 1% Triton X-100, 20 μg/ml aprotinin, 2 mM Na3VO4, 1 mM phenylmethylsulfonyl fluoride] from 5× sample buffer [25 mM EDTA, 10% sodium dodecyl sulfate (SDS), 500 mM dithiothreitol (DTT), 50% sucrose, 500 mM Tris.HCl (pH=6.8), 0.5% bromophenol blue). The samples were boiled for 5 minutes and then centrifuged for 5 minutes at 13,000×g, 4° C. […] Signal intensity was determined by densitometry using NIH imageJ software^24, 44, 50.

activation of Erk = assay: Western blot of vitreous-induced Erk activation in RPEM cells; type: cell-based, human; conditions: idelalisib 10.0 μM (selective dose for PI3Kδ)
Protocol: as §1

RPEM cells [2] = assay: Cell proliferation assay, RPEM cells with vitreous; type: cell-based, human; conditions: idelalisib 5 μM, 48 hours
Protocol: 3A. RPEM cells were seeded into a 24-well plate at a density of 3×10^4 cells/well. After 8 hours the cells had attached, the medium was changed to either 0.5 ml DMEM (−) or RV supplemented with idelalisib (5 μM) or its vehicle. After treated for 48 hours, the cells were counted with a hemocytometer under a light microscope. RPEM cells were seeded into wells of a 24-well plate at a density of 3×10^4 cells/well in DMEM/F12 with 10% FBS. Following attachment, the cells were treated with DMEM/F12 or RV (1:2 dilution in DMEM/F12) with or without idelalisib (5 μM). On day 3, the cells were trypsin detached from the plates and counted in a hemocytometer. Each experimental condition was assayed in duplicate, and at least three independent experiments were performed^24, 44.

RPEM cells [3] = assay: Cell apoptosis (survival) assay, RPEM cells with vitreous; type: cell-based, human; conditions: idelalisib 5 μM, 48 hours, Annexin V/PI FACS
Protocol: 3B. After RPEM cells reached 80% confluence in 60-mm dishes, the cultured medium was changed to either 3 ml DMEM/F12 or RV supplemented with idelalisib (5 μM) or its vehicle (0.1% dimethyl sulfoxide: DMSO). 48 hours later, the detached cells were washed with phosphate-buffer saline (PBS) and stained with fluorescein isothiocyanate (FITC)-conjugated Annexin V and propidium iodide (PI) and then analyzed by fluorescence-activated cell sorting (FACS). A representative raw data of three experiments below the bar graphs is shown. RPEM cells were seeded into 6 cm-dishes at a density of 2×10^5 cells per dish in DMEM/F12+10% FBS. Following attachment, the cells were treated with DMEM/F12 or RV (1:2 dilution in DMEM/F12) with or without idelalisib ([…]). On day 3, the cells were stained with fluorescein isothiocyanate (FITC)-conjugated annexin V and propidium iodide (PI) following the manufacturer's instructions (BD Biosciences, Palo Alto, Calif.). The cells were analyzed by flow cytometry in a Coulter Beckman XL instrument. At least three independent experiments were performed^24, 44.

activation of Akt = assay: VEGF-induced activation of Akt; type: cell-based
HRECs = assay: VEGF-induced cell proliferation assay in HRECs; type: cell-based, human; conditions: VEGF 20 ng/ml, idelalisib 5 μM, 48 hours
Protocol: In a cell proliferation assay, HRECs cells were seeded into 24-well plates at a density of 30,000 cells/well in an endothelial growth medium kit. After attaching the plates, the cells were starved for growth factors for 7 hours, and then treated with VEGF (20 ng/ml) or VEGF plus idelalisib (5 μM). After 48 hours, the cells were trypsin detached and then counted in a hemocytometer under a light microscope as shown in FIG. 10A from three independent experiments^50, 61.

[4] = tested on: angiogenesis (neovascularization) in retina; assay: Mouse model of oxygen-induced retinopathy (OIR); type: in vivo; conditions: P12 mice, intravitreal 1 μl of 50 μM, retinas IB4 stained on P17
Protocol: FIGS. 11A-B. Idelalisib inhibits angiogenesis in a mouse model of oxygen-induced retinopathy (OIR). Litters of P12 mice that had been exposed to 75% oxygen for five days were injected intravitreally with 1 μl ilidelalisib (50 μM) or its vehicle (DMSO). A, On P17, whole-mount-retinas were stained with IB4. B, Analysis of neovascularization (NV) areas from the IB4 stained retinas (n=6). The bar graph data are mean±SD of three retinas. “*” indicates significant difference using an unpaired t test. p<0.05.
C57BL/6J litters on postnatal day (P) 7 were exposed to 75% oxygen until P12 in the oxygen chamber (Biospherix). Oxygen concentration was monitored daily using an oxygen sensor (Advanced Instruments, GPR-20F)^58, 59. On P12, the pups were anesthetized by intraperitoneal injection of 50 mg/kg ketamine hydrochloride and 10 mg/kg xylazine. During intravitreal injections, eyelids of P12 pups were separated by incision. Pupils were dilated using a drop of 1% tropicamide and the eyes were treated with topical proparacaine anesthesia. Intravitreous injections were performed under a microsurgical microscope using glass pipettes with a diameter of approximately 150 μm at the tip after the eye were punctured at the upper nasal limbus using a BD insulin syringe with the BD ultra-fine needle. One μl of idelalisib or DMSO was injected. […]

For `CC[C@H](Nc1ncnc2[nH]cnc12)c1nc2cccc(F)c2c(=O)n1-c1ccccc1` [idelalisib], the “inhibition of vitreous-stimulated phosphorylation of Akt at serine 473” value ([1]; idelalisib 1.0 μM, 30 min pretreatment, rabbit vitreous 1:2 for 30 min) was “completely inhibited”, the “inhibition of PDGF-stimulated activation of Akt” value ([1]; idelalisib 10.0 μM (selective dose for PI3Kδ), PDGF-B 10 ng/ml) was “neither inhibited” and the “inhibition of vitreous-induced activation of Erk” value (activation of Erk) was “neither inhibited”. For the same compound, the “effect on vitreous-induced proliferation of RPEM cells” value (RPEM cells [2]) was “prevented”, the “effect on vitreous-induced survival of RPEM cells” value (RPEM cells [3]) was “prevented” and the “effect on VEGF-induced activation of Akt” value (activation of Akt) was “able to block”. For the same compound, the “effect on VEGF-stimulated cell proliferation of HRECs” value (HRECs) was “completely blocked” and the “effect on angiogenesis in oxygen-induced retinopathy” value [4] was “abrogated”.
